Test results taken from patent US6291527A (priority 1998, dated 2001).
Counter-ions that a name gives are not always drawn.

Columns and labels:
[1] = system: inflammatory exudate (IE); test: foreign body (sponge) method in the rat: inflammatory exudate volume; assay type: in vivo; settings: for IE (inflammatory exudate) volume / % inhibition versus controls of IE: oral, 8 hours, listed as KGS; for IE (inflammatory exudate) volume: mean ± MSE, controls 5.15 ± 0.28
Experimental: (§1) These tests involved the use of 100 male CD strain rats (Charles River, Calco, LC, Italy) weighing 180±8 g. The animals were fasted for 12 hours (water ad libitum) before being used for the experiment.
(§2) The inflammatory reaction with the formation of exudate was induced by using sterilized polyester sponges (4×1.5×0.5 cm) soaked in carrageen dissolved at a 2% concentration in sterile physiological solution. The rats were anesthetized lightly with ether and two sponges per rat were implanted subcutaneously in a previously shaven dorsal area.
(§3) The sponges were removed 8 hours later after having sacrificed the animals by ether euthanasia, and immediately placed in large polyethylene 50 ml test tubes containing 10 ml of heparinized physiological solution. The test tubes were then subjected to centrifugation (1000 rotations; 15 minutes), followed by removal of the sponges and accurate measurement of the volume of the remaining fluid. Always using the Higgs et al. method, the acid lipids present in the fluid were extracted in chloroform with prior dilution in ethanol and acidification to pH 3. After complete evaporation of the chloroform, the remaining dry residue was dissolved in physiological solution and used for the immunoenzymatic assay of prostaglandin E2 (PGE2).
(§4) All the other reagents used for the tests were purchased from Merck-Bracco (Milan, Italy).

[2] = animal studies of the three salts vs Ketoprofen acid and Ketoprofen sodium salt: distribution and kinetics; assay type: in vivo, experimental animals
Excerpt: The three above mentioned Ketoprofen salts were compared with Ketoprofen acid and Ketoprofen sodium salt in animal studies.

carrageen edema = carrageen edema test in the rat (hind paw volume, plethysmometer); settings: for evolution of paw volume (delta in ml) at 1st hour / evolution of paw volume (delta in ml) at 2nd hour / evolution of paw volume (delta in ml) at 3rd hour / evolution of paw volume (delta in ml) at 4th hour / evolution of paw volume (delta in ml) at 5th hour / evolution of paw volume (delta in ml) at 6th hour: mean ± MSE; for % inhibition vs controls (paw edema AUC): p < 0.001; for AUC (mean ± MSE) of increase in paw volume: paw volume (delta in ml) vs time (0 to 6 hours), controls 4.23 ± 0.26
prostaglandin E2 (PGE2) = test: foreign body (sponge) method in the rat: PGE2 in the inflammatory exudate (immunoenzymatic assay); assay type: in vivo; settings: for PGE2 concentration in the inflammatory exudate / % inhibition versus controls of PGE2: oral, 8 hours, listed as KGS; for PGE2 concentration in the inflammatory exudate: mean, controls 98.7 ± 4.7
Experimental: as §1, §2, §3, §4

[3] = rat, 0.5, 1, 2 and 4 mg/kg per os
[4] = rat, oral, 1 mg/kg, listed as KGS
[5] = rat, oral, 2 mg/kg, listed as KGS

## CC(C(=O)O)c1cccc(C(=O)c2ccccc2)c1 (stereo not shown) [Ketoprofen Glucosamine salt]
[1]; Rattus norvegicus, po, 8 h, rat, 95% confidence limits KGS 1.802-2.381, KLS 2.334-3.094
  ED50: 2.09 mg/kg
[1]; [3]
  control of the inflammatory response to sponge implantation: controls the vasculo-exudative inflammatory response in a dose dependent manner
[1]; rat, 0.5 mg/kg
  IE (inflammatory exudate) volume: 3.87 ± 0.27 mL
  % inhibition versus controls of IE: 24.8%
[1]; rat, 1 mg/kg
  IE (inflammatory exudate) volume: 3.56 ± 0.28 mL
  % inhibition versus controls of IE: 30.9%
[1]; rat, 2 mg/kg
  IE (inflammatory exudate) volume: 2.53 ± 0.22 mL
  % inhibition versus controls of IE: 50.9%
[1]; rat, 4 mg/kg
  IE (inflammatory exudate) volume: 1.05 ± 0.09 mL
  % inhibition versus controls of IE: 79.6%
[2]; injection, vs Ketoprofen sodium salt
  active substance concentration in the inflamed site: much greater than that observed with Ketoprofen sodium salt
[2]; oral, vs Ketoprofen acid and Ketoprofen sodium salt
  kinetic parameters after oral administration: significantly different
Carrageen edema; Rattus norvegicus, po, read-out: oral ED50 (carrageen edema, extrapolated from AUC), rat, oral, 95% conf. lim. KGS 0.733-1.474, KLS 1.198-1.567
  ED50: 1.1 mg/kg
Carrageen edema; rat, oral
  anti-inflammatory / anti-edematogenic effect: dose-dependent
Carrageen edema; rat, oral 0.5, 1 and 2 mg/kg
  anti-inflammatory activity compared with Ketoprofen Lysine salt: comparable
Carrageen edema; rat, oral, 0.5 mg/kg, controls 0.40 ± 0.02, listed as KGS
  evolution of paw volume (delta in ml) at 1st hour: 0.28 ± 0.02 mL
Carrageen edema; rat, oral, 0.5 mg/kg, controls 0.71 ± 0.02, listed as KGS
  evolution of paw volume (delta in ml) at 2nd hour: 0.51 ± 0.03 mL
Carrageen edema; rat, oral, 0.5 mg/kg, controls 0.87 ± 0.03, listed as KGS
  evolution of paw volume (delta in ml) at 3rd hour: 0.62 ± 0.04 mL
Carrageen edema; rat, oral, 0.5 mg/kg, controls 0.93 ± 0.03, listed as KGS
  evolution of paw volume (delta in ml) at 4th hour: 0.65 ± 0.04 mL
Carrageen edema; rat, oral, 0.5 mg/kg, controls 0.90 ± 0.04, listed as KGS
  evolution of paw volume (delta in ml) at 5th hour: 0.62 ± 0.05 mL
Carrageen edema; rat, oral, 0.5 mg/kg, controls 0.84 ± 0.04, listed as KGS
  evolution of paw volume (delta in ml) at 6th hour: 0.56 ± 0.05 mL
Carrageen edema; rat, oral, 0.5 mg/kg
  % inhibition vs controls (paw edema AUC): 30%
Carrageen edema; rat, oral, 0.5 mg/kg, listed as KGS
  % inhibition vs controls (paw edema AUC): 30.0%
Carrageen edema; rat, oral, 0.5 mg/kg, listed as KGS, 0.5 mg/kg
  AUC (mean ± MSE) of increase in paw volume: 2.96 ± 0.15
Carrageen edema; [4]
  evolution of paw volume (delta in ml) at 1st hour: 0.23 ± 0.01 mL
  evolution of paw volume (delta in ml) at 2nd hour: 0.39 ± 0.02 mL
  evolution of paw volume (delta in ml) at 3rd hour: 0.46 ± 0.02 mL
  evolution of paw volume (delta in ml) at 4th hour: 0.48 ± 0.02 mL
  evolution of paw volume (delta in ml) at 5th hour: 0.45 ± 0.02 mL
  evolution of paw volume (delta in ml) at 6th hour: 0.39 ± 0.03 mL
  % inhibition vs controls (paw edema AUC): 48.0%
Carrageen edema; rat, oral, 1 mg/kg
  % inhibition vs controls (paw edema AUC): 48%
Carrageen edema; rat, oral, 1 mg/kg, listed as KGS, 1 mg/kg
  AUC (mean ± MSE) of increase in paw volume: 2.20 ± 0.13
Carrageen edema; [5]
  evolution of paw volume (delta in ml) at 1st hour: 0.11 ± 0.02 mL
  evolution of paw volume (delta in ml) at 2nd hour: 0.20 ± 0.02 mL
  evolution of paw volume (delta in ml) at 3rd hour: 0.26 ± 0.03 mL
  evolution of paw volume (delta in ml) at 4th hour: 0.28 ± 0.03 mL
  evolution of paw volume (delta in ml) at 5th hour: 0.25 ± 0.03 mL
  evolution of paw volume (delta in ml) at 6th hour: 0.16 ± 0.02 mL
  % inhibition vs controls (paw edema AUC): 72.1%
Carrageen edema; rat, oral, 2 mg/kg
  % inhibition vs controls (paw edema AUC): 72%
Carrageen edema; rat, oral, 2 mg/kg, listed as KGS, 2 mg/kg
  AUC (mean ± MSE) of increase in paw volume: 1.18 ± 0.06
Prostaglandin E2 (PGE2); Rattus norvegicus, po, 8 h, rat, 95% confidence limits KGS 1.848-2.131, KLS 2.215-3.005
  ED50: 1.99 mg/kg
Prostaglandin E2 (PGE2); [3]
  inhibition of PGE2 activity in exudates: singificant inhibition of PGE2 activity
Prostaglandin E2 (PGE2); rat, 0.5 mg/kg
  PGE2 concentration in the inflammatory exudate: 67.6 ng/mL
  % inhibition versus controls of PGE2: 31.5%
Prostaglandin E2 (PGE2); rat, 1 mg/kg
  PGE2 concentration in the inflammatory exudate: 60.5 ng/mL
  % inhibition versus controls of PGE2: 38.7%
Prostaglandin E2 (PGE2); rat, 2 mg/kg
  PGE2 concentration in the inflammatory exudate: 49.9 ng/mL
  % inhibition versus controls of PGE2: 49.4%
Prostaglandin E2 (PGE2); rat, 4 mg/kg
  PGE2 concentration in the inflammatory exudate: 24.9 ng/mL
  % inhibition versus controls of PGE2: 74.8%
